Measured values taken from patent US10736923B2, “Methods and compositions for generating chondrocyte lineage cells and/or cartilage like tissue” (UNIVERSITY HEALTH NETWORK, priority 2013, dated 2020).

How the values were obtained:
Type in all cases: cell-based, human
[1] = system: hPSC-derived articular chondrocytes; assay: Response of hPSC-derived articular-like cartilage to IL1β
Experimental: FIG. 9. hPSC-derived articular-like cartilage respond appropriately to the pro-inflammatory molecule IL1β. (A) The experimental plan is depicted. Articular cartilage tissues were derived from hPSCs for 10 weeks in the presence of TGFβ3. Cartilage tissues (micromasses) were treated for two weeks (from week 10-12) with TGFβ3 or IL1β (10 ng/ml), as indicated. […] Values represent copy number mRNA relative to TBP (n=7). Error bars indicate s.e.m. (K) Histological analysis of 12-week tissues after treatments as indicated. Metachromatic toluidine blue staining indicates proteoglycans.
Access to an unlimited supply of hPSC-derived articular-like cartilage provides an opportunity to establish platforms to analyze the effects of pro-inflammatory cytokines such as […] (IL1beta), known to play a role in the early stages of osteoarthritis (OA). […] These enzymes cleave proteins found in cartilage extracellular matrix (ECM), such as collagens and aggrecans, which leads to the degradation of cartilage tissue. Significant upregulation of MMP13 and ADAMTS4 was observed only in the absence of TGFbeta3. ADAMTS5 was induced with or without TGFbeta3 present.

[2] = system: hPSC-derived paraxial mesoderm; assay: Chondrocyte specification in micromass culture with TGFB3 or BMP4 (histology, scatter flow cytometry, qRT-PCR, immunostaining); conditions: for CILP2 expression / COL2A1 expression / PRG4 (lubricin) expression: 12 weeks of micromass culture, TGF agonist 10 ng/ml
Excerpt: FIG. 4. TGFB3 and BMP4 specify chondrocytes and cartilage-like tissues with articular cartilage and growth plate cartilage phenotypes. (A) Micrographs of 5 week old micromasses derived with TGFB3 or BMP4, 20× magnification. (B) Tissue histology (stained with toluidine blue) of 13 week cartilage tissues derived with TGFB3 or BMP4. […] (C) Flow cytometric analysis of forward and side cell scatter parameters of 3 week and 5 week old micromasses. Side scatter indicates cell granularity and forward cell scatter indicates cell size. (D) Comparison of hPSC-derived micromass tissues to fetal primary chondrocyte derived micromass tissues and the developing human fetal femur cartilage. Articular cartilage regions appear to have smaller cells in size compared to growth plate like regions, which contain cells which appear enlarged (hypertrophic). Cartilage tissues in micromass as well as in the fetal femur stain uniformly with the toluidine blue stain (images are pink/purple in color and indicate the presence of cartilage proteins). The BMP4-treated micromass tissues contain a large number of enlarged cells which is similar to the bottom panel of the fetal cartilage which represents a growth plate cartilage. TGFB3 treated micromass cultures contain fewer, if any, enlarged chondrocytes, and appear similar to the upper panel of the fetal cartilage which is the site of articular cartilage. (E) Micrograph using GDF5 instead of BMP4 to generate hypertrophic chondrocytes. (F) Histological analyses of cartilage tissues derived from hiPSCs stained with Toluidine blue after 12 weeks. (G,H) Immunohistochemical staining of hESC-derived cartilage tissues for type II Collagen (G, 8 week tissues), and lubricin (H, 12 week tissues).
FIG. 5. Gene expression analyses of chondrocyte specification in the presence of TGFB3 or BMP4 during stages 3 and 4 of differentiation respectively. General chondrocyte genes Sox9 (A) and collagen 2 (B), hypertrophic genes collagen 10 (C), Runx2 (D), osterix (E) and alkaline phosphatase (F), articular cartilage associated genes lubricin (G) and cartilage intermediate layer protein 2 (CILP2) (H), interzone-related (joint progenitor) genes GDF5 (I), ERG (J) and Wnt9a (K). Expression is copy number relative to TBP (n=3 to 8 biological replicates) and is compared to primary fetal chondrocytes (aged 16 to 19 weeks, n=4), primary healthy adult articular chondrocytes (n=2), and growth plate-like chondrocytes isolated from the iliac crest of an adult (n=1). T15 Mesoderm indicates day 15 hESC-derived paraxial mesoderm (DM+FGF-treated). Error bars indicate s.e.m.
FIG. 8. TGFβ1, TGFβ2, and TGFβ3 generated articular chondrocytes from hPSC-derived paraxial mesoderm. COL2A1, lubricin, and CILP2 gene expression after 12 weeks of micromass culture in the presence of TGF agonists as indicated (10 ng/ml). Values represent copy number mRNA relative to TBP. Error bars indicate s.e.m.
Previous studies have shown that TGFBeta/BMP signaling is required to generate chondrocyte progenitors from paraxial mesoderm. […] Following 10 days of TGFb3 treatment (day 25 total), cultures could be switched to media containing BMP4 or maintained in TGFb3 (stage 4) in order to specify subsets of chondrocytes (articular/non-hypertrophic or growth plate/hypertrophic). To determine the chondrocyte potential of the day 15 mesoderm populations, the cells were plated at high cell density in a 20 microliter volume on tissue culture treated Petri dishes for an hour (micromass) and then the ‘spot’ was submerged/covered with media. In our initial studies, the cells were ‘spotted’ in a media containing 2% fetal bovine serum. However, this short serum exposure can be omitted with no effects on cartilage formation at later stages, making this protocol optionally serum-free. After 2 to 3 days, serum-free media containing TGFb3 is added to the culture to generate chondrocyte progenitors. […]

[3] = system: primitive streak-like mesoderm population; assay: Paraxial mesoderm specification in monolayer culture, flow cytometry of cell surface markers; conditions: day 4 to day 6 with Dorsomorphin, bFGF, SB431542; read on day 15
Experimental: FIG. 2. Characterization of paraxial mesoderm derived from hPSCs. Flow cytometric analysis of day 5 mesoderm treated with no additional factors (0 DM, no FGF), FGF, 4 μM DM, or 4 μM DM+FGF. Day 5 profiles depict KDR and PDGFRa expression, a double-positive population (gated) indicates mesoderm that has cardiac potential (20). Treatment with FGF results in less PDGFRa expression on day 5. (B) Expression of cell surface markers CD73, CD105, and PDGFR-beta on mesoderm populations on day 15 of differentiation. […] Experimental cell treatments during day 4 to day 6 include the combination of Dorsomorphin, bFGF, TGFbeta inhibitor (SB431542) in the presence or absence of the wnt pathway inhibitor IWP2. Flow cytometric analyses of CD73 and CD105, on day 15 mesoderm populations derived as indicated. (D) Gene expression analyses of day 15 mesoderm populations derived in indicated factors. Nkx2.5 is a cardiac transcription factor, Meox1 and Nkx3.2 are paraxial mesoderm and somite transcription factors. (E) Micrographs depicting 1 day old micromasses and 1 week old micromasses derived from day 15 mesoderm populations as indicated. (F) Flow cytometric analysis of cardiac troponin T (cTnT) expression in 1 week old micromasses derived from day 15 mesoderms as indicated. […] To generate chondrocytes, it is essential to first specify this PS population to a paraxial mesoderm fate. Previous studies have shown that mesoderm populations that express cell surface markers often found on mesenchymal stem cells, CD73 and CD105, have chondrogenic potential (Hwang, Kim et al. 2006). The expression of these two cell surface markers, as well as the expression of transcription factors Meox1 and Nkx3.2 combined with the lack of expression of Nkx2.5 to monitor the emergence of a paraxial mesoderm population was used. Previous experiments in the mouse ESC model system have shown the importance of inhibiting the BMP signaling pathway in the context of FGF signaling to prevent the emergence of cardiac mesoderm and promote the development of paraxial mesoderm (Craft, Ahmed et al. 2013). […] Very few cells in untreated mesoderm conditions expressed CD73 and CD105 (7.46%, FIG. 2B). […] The changes in expression of these surface markers were accompanied by the upregulation of paraxial genes Meox1 and Nkx3.2 (FIG. 2C). […] Thus, in some cell lines, the efficiency of paraxial mesoderm specification may be improved in the presence of a Wnt pathway antagonist immediately following the PS mesoderm induction phase.

[4] = IL1beta in presence of TGFbeta3
[5] = IL1β 10 ng/ml, week 10-12, absence of TGFb3
[6] = IL1β 10 ng/ml, week 10-12, absence of TGFbeta3

IL1beta: pro-inflammatory cytokine was tested, and the CILP2 expression [1, 4] was “downregulated”, the “lubricin (PRG4) expression” value [1, 4] was “downregulated” and the ADAMTS5 expression ([1]; IL1beta with TGFbeta3 present) was “induced”. The ACAN expression ([1]; IL1β 10 ng/ml, week 10-12) was “reduction”, the COL2A1 expression ([1]; IL1β 10 ng/ml, week 10-12) was “reduction” and the “vascular endothelial growth factor (VEGF) expression” value ([1]; IL1β 10 ng/ml, week 10-12) was “increase”. The “proteoglycans in the tissue (toluidine blue)” value ([1]; IL1β 10 ng/ml, week 10-12, 12-week tissues) was “noticeable loss”, the ADAMTS4 expression [1, 5] was “upregulation” and the ADAMTS5 expression [1, 5] was “upregulation”. The MMP2 expression [1, 5] was “upregulation”, the MMP13 expression [1, 5] was “upregulation” and the CILP2 expression [1, 6] was “downregulated”. For the same molecule, the “lubricin (PRG4) expression” value [1, 6] was “downregulated”.

With TGFbeta1: TGFbeta agonist the CILP2 expression [2] was “upregulated”, the COL2A1 expression [2] was “upregulated” and the “PRG4 (lubricin) expression” value [2] was “upregulated”.

`Cc1ccc2nc(NC(=O)CSc3nc4c(c(=O)n3-c3ccccc3)SCC4)sc2c1` [IWP2, N-(6-Methyl-2-benzothiazolyl)-2-[(3,4,6,7-tetrahydro-4-oxo-3-phenylthieno[3,2-d]pyrimidin-2-yl)thio]-acetamide, reference compound] was tested, and the “CD73 and CD105 expression with Wnt inhibition” value [3] was “improve the efficiency of CD73 and CD105 expression”.

B1: TGFbeta2: TGFbeta agonist (protein, UniProt P61812 303-414, looked up)
Transforming growth factor …: ALDAAYCFRNVQDNCCLRPLYIDFKRDLGWKWIHEPKGYNANFCAGACPYLWSSDTQHSRVLSLYNTINPEASASPCCVSQDLEPLTILYYIGKTPKIEQLSNMIVKSCKCS
B1 was tested, and the CILP2 expression [2] was “upregulated”, the COL2A1 expression [2] was “upregulated” and the “PRG4 (lubricin) expression” value [2] was “upregulated”.

B2: GDF5: growth and differentiation factor 5, BMP4 agonist (protein, UniProt P43026 382-501, looked up)
Growth/differentiation factor …: APLATRQGKRPSKNLKARCSRKALHVNFKDMGWDDWIIAPLEYEAFHCEGLCEFPLRSHLEPTNHAVIQTLMNSMDPESTPPTCCVPTRLSPISILFIDSANNVVYKQYEDMVVESCGCR
In the case of B2, the “tissue histology (toluidine blue), chondrocyte size” value ([2]; 13 week old tissues, GDF5 instead of BMP4) is reported as “generates hypertrophic chondrocytes”.
